From patent publication US20240383865A1, “HIGH-ENERGY-VIOLET-ABSORBING VINYLIC MONOMERS” (Alcon Inc., priority 2023, published 2024)
≈ marks a conversion by molar mass, not a printed value.

Key:
Type in all cases: physicochemical
[1] = Absorption edge of germanium photoinitiators
[2] = Solubility of HEVL-absorbing vinylic monomers in 1-propanol
Method: This example illustrates the correlation between the melting point and solubility of HEVL-absorbing vinylic monomers of
As anticipated, solubility in 1-propanol is improved, reaching >4.0 mg/ml (Table 1).

[3] = UV/visible absorption spectra of dilute solutions (40 ppm, 1 cm cuvette); details: for UV/visible absorption profiles of UV28 and UV35 compared: 40 ppm, FIG. 3
[4] = Dissolution of benzotriazole monomer in lens formulations; details: for Dissolution in Lightstream formulation: formulations 6-1 (UV28) and 6-2 (UV35), mixing at room temperature then 40° C.; for Dissolution in thermally cured formulations: formulations 6-3 (UV28) and 6-4 (UV35), mixed at room temperature 1-2 hours
Method: All formulations in the amount of 10 g are mixed at room temperature for 1-2 hours. Following initial mixing, Lightstream formulations (6-1 and 6-2) are mixed for an additional 1-2 hours at 40° C. […] Both benzotriazoles-UV28 and UV35 dissolve in thermally cured formulations (6-3 and 6-4). Room temperature and refrigerated (3° C.) conditions are tested.

| solubility ([2]; organic solvent or mixture, read-out: Solubility in PrOH) [µg/mL] | SMILES | Absorption edge [1] [nm] | Solubility in PrOH [2] [µg/mL] | Absorption Peak ([3]; 40 ppm in 1-propanol) [nm] | UV/visible absorption profiles of UV28 and UV35 compared [3] | Dissolution in Lightstream formulation [4] | Dissolution in thermally cured formulations [4] |
| --- | --- | --- | --- | --- | --- | --- | --- |
|  | C[CH2][Ge]([CH2]C)([C](=O)c1ccc(OC)cc1)[C](=O)c1ccc(OC)cc1 [BMBDE-Ge, Bis(4-methoxybenzoyl)diethylgermanium] | 470 |  |  |  |  |  |
|  | CCc1ccccc1[C](=O)[Ge]([C](=O)c1ccccc1CC)([C](=O)c1ccccc1CC)[C](=O)c1ccccc1CC [TEB-Ge, tetrakis(2-ethylbenzoyl)-germanium] | 490 |  |  |  |  |  |
|  | C=C(C)C(=O)OCCCOc1cc(-n2nc3ccc(Cl)cc3n2)c(O)c(C(C)(C)C)c1 [UV28, 2-{2′-Hydroxy-3′-tert-butyl-5′-[3′-methacryloyloxypropoxy]phenyl}-5-chloro-2H-benzotriazole, reference compound] |  | 1500 (≈ 3.38 mM) | 364 | equivalent | does not dissolve | dissolve |
| > 4000 | C=C(C)C(=O)OCCOCCOc1cc(-n2nc3ccc(Cl)cc3n2)c(O)c(C(C)(C)C)c1 [UV35, 2-propenoic acid, 2-methyl-, 2-[2-[3-(5-chloro-2H-benzotriazol-2-yl)-5-(1,1-dimethylethyl)-4-hydroxyphenoxy]ethoxy]ethyl ester] |  | >4000 |  | equivalent | dissolves completely | dissolve |
